Columns and labels:
MAVS [1] = test: MAVS oligomerization in MEFs (semi-denaturing gel electrophoresis, immunoblot, densitometry); format: cell-based, mouse
Experimental: 5′ triphosphate double-stranded RNA (5′-ppp-dsRNA), a synthetic ligand for RIG-I, was purchased from InVivoGen and used at a concentration of 1 μg/mL. Mitochondria-targeted antioxidant MitoQ and the mitochondria-targeted superoxide generator MitoPQ, were gifts of M. Murphy (G. F. Kelso et al., (2001) The Journal of biological chemistry 276, 4588-4596). The control reagent TPP was purchased from Sigma. Reagents were added to cells at concentrations as indicated. GOx was purchased from Sigma and added to cultured cells at a final concentration of 0.1 U/mL. Iodoacetamide was from Thermo Fisher, and used at a final concentration of 100 μM.
Cultured MEFs or human PBMCs were lysed in a sample buffer containing 2% SDS and insoluble cell fragments were removed by centrifugation. Plasma samples derived from SLE patients were collected and stored at −20° C. until gel electrophoresis. BCA protein assay (Thermo Scientific) was used to determine protein concentrations in all samples were resolved with SDS-PAGE under denaturing conditions. Gels were transferred to PVDF membranes using a Trans-Blot Turbo Transfer System (BioRad).
(§1) SDD-AGE was performed according to a published protocol with minor modifications (Alberti et al., (2009) Cell 137, 146-158). In brief, mitochondria were resuspended in sample buffer (0.5×TBE, 10% glycerol, 2% SDS, and 0.0025% bromophenol blue) and loaded onto a vertical 1.5% agarose gel. After electrophoresis in the running buffer (1×TBE and 0.1% SDS) for 35 min with a constant voltage of 75 V at 4° C., proteins were transferred to PVDF membranes using a Trans-Blot Turbo Transfer System (BioRad) for immunoblotting.
PVDF membranes were blocked in 5% solution of nonfat powdered milk in Tris-buffered saline. Antibodies used were specific for MAVS and Actin (Santa Cruz); RIPK1 and TRAF2 (BD Biosciences); TANK, TRADD, RIG-I, and GAPDH (Cell Signaling); MDAS and COX4 (Abcam), Alexa 488 (Life Technologies), and IRF3 (Thermo Fisher), respectively. Immunoreactive proteins were visualized using HRP-labeled conjugates (Jackson Immuno Research) and developed using Clarity Western ECL substrate (Biorad). Chemiluminescence was detected and recorded using a Biorad Chemidoc instrument. Densitometric measurements were performed in Image Lab image acquisition and analysis software (Biorad).

MEFs [2] = test: Mitochondrial transmembrane potential (ΔΨm) by FACS using TMRE in MEFs; format: cell-based, mouse
Experimental: (§2) ROS generation was measured using oxidized, green-fluorescent dihydrocalcein acetoxymethylester (DHC-AM) (Life Technologies) and flow cytometry. Single-cell suspensions of MEFs were prepared and ROS was assessed with 5 μM DHC-AM staining in culture medium for 30 minutes (A. Rohnstock et al., (2007) Toxicol in Vitro 21, 1552-1562). 25 nM of cationic cell permeant dye tetramethylrhodamine ethylester (TMRE; Life Technologies) (R. C. Scaduto, Jr. et al., (1999), Biophysical journal 76, 469-477) were used to measure ΔΨm. Additionally, MitoSox Red and MitoTracker Deep Red (Life Technologies) were used to measure mitochondrial ROS and mitochondrial mass, respectively. Flow cytometry was carried out on an LSRII (BD Biosciences), and FlowJo software (Tree Star) was used for analysis.

MAVS [3] = test: MAVS oligomerization in human PBMC and plasma (semi-denaturing agarose gel electrophoresis); format: cell-based
Experimental: MAVS-deficient and matching WT MEFs, gift of Z. J. Chen (Z. J. Chen et al. (2005) Cell 122, 669-682), were maintained in Dulbecco's modified Eagle's medium (DMEM) (Hyclone), supplemented with 10% heat-inactivated fetal calf serum (FCS) (Hyclone), 100 mM L-glutamine (Cellgro Mediatech), and 10,000 units/mL penicillin/10 mg/mL streptomycin sulfate (Life Technologies). C57BL6 or B6; 129-Mavstm1Zjc/J mice (The Jackson Laboratory, Bar Harbor, Me.) were maintained at the University of Vermont under a protocol approved by the Institutional Animal Care and Use Committee. Murine BMDCs were prepared as described by Inaba et al. (K. Inaba et al., (1992) Journal of Experimental Medicine 176, 1693-1702). In brief, cells derived from femur bone marrow were cultured at a density of 5×10^5/mL in 10-cm plates in RPMI 1640 (HyClone), supplemented with 5% heat-inactivated FCS, 100 mmol L-glutamine, 100 mmol sodium pyruvate, 10,000 units/mL penicillin/10 mg/mL streptomycin sulfate, 5×10^−5 mol 2-mercaptoethanol (Sigma, St. Louis, Mo.), and 10 μg/mL GM-CSF (Life Technologies). Human subjects were enrolled under a protocol approved by the University of Vermont Institutional Review Board. Samples from 17 SLE patients fulfilling the American College of Rheumatology diagnostic criteria were studied (E. M. Tan et al., (1982) Arthritis and Rheumatism 25, 1271-1277). 16 out of 17 patients were female, and the age of study participants was 47±3. The disease activity was assessed by the SLE disease activity index (SLEDAI) scores, ranging from 0 to 10 (C. Bombardier et al., (1992) Arthritis and Rheumatism 35, 630-640). Upon informed consent, primary human PBMCs were obtained from heparinized whole-blood samples from SLE patients. Control PBMCs were generated from age-, sex-, and ethnicity-matched healthy subjects. PBMCs were isolated using standard Ficoll gradient centrifugation as previously described (R. Mallone et al., (2011) Clin. and Exp. Immunol. 163, 33-49). Cells were either used immediately to prepare lysates for immunoblotting or cultured at a density of 5×10^5/mL in a 12-well culture plate with RPMI 1640 (HyClone), supplemented with 5% heat-inactivated FCS, 100 mmol L-glutamine, 100 mmol sodium pyruvate, and 10,000 units/mL penicillin/10 mg/mL streptomycin sulfate. Enriched monocytes from PBMCs were used to prepare hDCs using negative magnetic bead selection (Miltenyi), and were subsequently cultivated for 6 d in 10 μg/mL GM-CSF and 500 U/mL IL-4. All cells were maintained in a humidified chamber at 37° C. and 5% CO2.
as §1
PVDF membranes were blocked in 5% solution of nonfat powdered milk in Tris-buffered saline. Antibodies used were specific for MAVS and Actin (Santa Cruz); RIPK1 and TRAF2 (BD Biosciences); TANK, TRADD, RIG-I, and GAPDH (Cell Signaling); MDAS and COX4 (Abcam), Alexa 488 (Life Technologies), and IRF3 (Thermo Fisher), respectively. […] Chemiluminescence was detected and recorded using a Biorad Chemidoc instrument. […]

[4] = Total thiol concentration of PBMC and plasma homogenates; design: species or system human
Drp1 = test: Phosphorylated Drp1 (Drp1 616p) at purified mitochondria, densitometry normalized to Cox IV; format: cell-based; settings: 5′-ppp-RNA 1 μg/ml or GOx (FIG. 14A-B)
Experimental: To activate MAVS commercially available 5′-ppp-RNA was used at a concentration of 1 μg/ml, which activates RIG-I helicase. As an alternative GOx was used as previously described [Szeto, H. H., Br J Pharmacol, 2014. 171(8): p. 2029-50]. Mitochondria were purified by anti-Tom22 magnetic beads as previously described [Perl, A., et al., Int Rev Immunol, 2004. 23(3-4): p. 293-313]. Changes in the level of Drp1^616p at mitochondria were determined by densitometry, which was normalized to the level of Cox IV (FIG. 14A-B).

MEFs [5] = test: ROS generation by FACS using DHC in MEFs; format: cell-based, mouse
Experimental: as §2

MEFs [6] = test: Oxygen consumption rate (OCR), Seahorse XF-24 extracellular flux analyzer, MEFs; format: cell-based, mouse; settings: MAVS-WT MEFs (FIG. 1I, J)
Experimental: Real-time analysis of OCR and ECAR was performed with an XF-24 Extracellular Flux Analyzer (Seahorse Bioscience). Metabolic profiles were measured under basal conditions in non-buffered DMEM (Sigma) containing 25 mM glucose, 2 mM L glutamine, and 1 mM sodium pyruvate, in response to 1 μM oligomycin, 0.5 μM FCCP, and 1 μM rotenone/1 μM antimycin A (M. B. de Moura et al., (2014) Methods in molecular biology 1105, 589-602). Total ATP was measured with the ATP Lite Kit (Perkin Elmer), and the ATP/ADP ratio was determined using the bioluminescence ADP/ATP Ratio Assay Kit from Sigma.

MAVS oligomers = biological target: T1, MAVS oligomers (Homo sapiens, UniProt Q7Z434); test: Membrane lipid-strip blot: interaction of lipids with MAVS oligomers isolated from SLE patients; format: binding; settings: lipid strips exposed to 1 μg/ml MAVS oligomer from SLE patients (FIG. 15B)
T1 construct: The strips were exposed to 1 μg/ml of MAVS oligomer isolated from SLE patients; from tissue; host or cells: SLE patient material, immunoprecipitated with anti-MAVS antibody on protein G magnetic beads
T1 sequence (Q7Z434 whole entry): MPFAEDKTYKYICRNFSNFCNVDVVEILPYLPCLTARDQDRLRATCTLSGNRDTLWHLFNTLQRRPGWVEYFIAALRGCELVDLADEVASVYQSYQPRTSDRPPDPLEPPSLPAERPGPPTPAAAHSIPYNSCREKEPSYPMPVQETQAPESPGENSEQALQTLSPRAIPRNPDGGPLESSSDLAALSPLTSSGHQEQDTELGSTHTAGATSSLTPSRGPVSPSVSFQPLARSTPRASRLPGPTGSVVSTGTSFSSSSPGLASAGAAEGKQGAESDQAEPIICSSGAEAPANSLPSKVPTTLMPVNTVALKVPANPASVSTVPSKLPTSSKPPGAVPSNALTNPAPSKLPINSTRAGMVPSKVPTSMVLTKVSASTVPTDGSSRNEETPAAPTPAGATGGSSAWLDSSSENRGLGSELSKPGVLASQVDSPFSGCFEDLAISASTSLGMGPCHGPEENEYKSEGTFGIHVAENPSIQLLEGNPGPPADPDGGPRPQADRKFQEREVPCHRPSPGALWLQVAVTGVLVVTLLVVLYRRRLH
Experimental: To assess MAVS oligomer interaction a plate coated with anti-phospholipid antibody was prepared and was later was saturated with purified CL. The same plate was exposed to purified and Alx488 labeled MAVS oligomers from mock or GOx treated healthy controls, or from SLE patients as previously published [Szeto, H. H., Br J Pharmacol, 2014. 171(8): p. 2029-50]. Following washing, fluorescence of captured MAVS oligomers was measured. As a control we used recombinant, purified and Alx488 labeled MAVS monomers. Results are shown in FIG. 15A with data shown as mean±SEM, with results representative of two experiments. […] Tests were performed on membrane lipid-strips (Echelon Biosciences). The strips were exposed to 1 μg/ml of MAVS oligomer isolated from SLE patients. The strips were washed with mild detergent and treated with phospholipase A2 (PLA2).

MEFs [7] = test: IFN-I and IL-6 cytokine secretion by ELISA in MEF culture supernatants; format: cell-based, mouse; settings: MAVS-WT MEFs
Experimental: ELISA was used to measure cytokine concentration in supernatant from cultured MEFs and BMDCs, and in sera of SLE patients and healthy control subjects. For assays, samples were centrifuged and IFN-β and IL-6 levels were measured in triplicate using murine or human ELISA kits according to the manufacturer's instructions. (PBL Biosciences). The fold change in IFN-I or IL-6 cells was calculated by directly comparing mock versus virus or chemical inducer of ROS.

MEFs [8] = test: Cell death by FACS using live-dead stain; format: cell-based, mouse; settings: MitoPQ at the doses used (1 to 10 nM) (FIG. 2I)
MAVS [9] = test: MAVS expression and oligomerization in the mitochondrial fraction of BMDCs treated with free dye; format: cell-based, mouse; settings: increasing concentrations of free Alx488 dye (FIG. 7G)

OCCS [β-Me, β-mercaptoethanol]
reversal of GOx-induced MAVS oligomerization (MAVS [1]; cell media supplemented with β-Me (FIG. 2A)): reversible
reversal of SINV-induced MAVS oligomerization (MAVS [1]; cell media supplemented with β-Me, SINV infection (FIG. 2A)): only a portion of the MAVS oligomers were reducible
mitochondrial hyperpolarization in GOx-treated cells (MEFs [2]; media supplemented with β-Me, GOx (FIG. 2D)): prevented mitochondrial hyperpolarization
GOx-induced MAVS oligomerization in PBMCs after pretreatment (MAVS [3]; healthy-donor PBMCs pretreated with MitoQ or grown in presence of β-Me, then GOx (FIG. 4A)): MAVS oligomerization did not occur

NC(=O)CI [iodoacetamide]
MAVS oligomers with thiol blocking during homogenization (MAVS [3]; cells homogenized in buffer with 100 μM iodoacetamide after GOx or SINV (FIG. 9)): did not result in a decrease in MAVS oligomers
detection of MAVS oligomers in SLE cells or plasma with thiol blocking (MAVS [3]; iodoacetamide added to SLE PBMC and plasma samples (FIG. 9)): did not decrease the detection of MAVS oligomers
reduction of total thiol concentration, PBMCs ([4]; PBMC homogenates (FIG. 9)): 80%
reduction of total thiol concentration, plasma ([4]; plasma homogenates (FIG. 9)): 94%

CCCCCCCCCC[P+](c1ccccc1)(c1ccccc1)c1ccccc1 [dTPP]
MAVS oligomerization after pretreatment (MAVS [1]; MEFs pretreated (100 μM) before GOx or SINV (FIG. 3A)): did not demonstrate reversal of MAVS oligomerization

5′ triphosphate double-stranded RNA [5′-ppp-RNA]
ΔΨm induced by the substance (MEFs [2]; MAVS-WT MEFs, not observed in MAVS-KO (FIG. 1B, 2D)): increased
level of phosphorylated Drp1 at mitochondria after MAVS activation (Drp1): lower levels of phosphorylated Drp1 at mitochondria
ROS after transfection (MEFs [5]; MAVS-WT MEFs, initial 12 h, 1 μg 5′-ppp-RNA (FIG. 1A)): increased
basal OCR versus mock-treated cells (MEFs [6]): significantly lower basal OCR

cardiolipin [CL]
interaction with MAVS oligomers (MAVS oligomers): significant interaction

C[n+]1ccc(-c2cc[n+](CCCCCCCCCC[P+](c3ccccc3)(c3ccccc3)c3ccccc3)cc2)cc1.[I-].[I-].[I-] [MitoPQ, MitoParaquat]
induction of MAVS oligomerization without viral infection (MAVS [1]; MEFs, substance alone (MitoPQ 1 to 10 nM, FIG. 2H; GOx, FIG. 2A)): MAVS oligomerization
IFN-I secretion induced by the substance (MEFs [7]; not observed in MAVS-KO (FIG. 2E, 2J)): significant increase
IL-6 secretion induced by the substance (MEFs [7]; not observed in MAVS-KO (FIG. 2F, 2K)): significant increase
superoxide within mitochondria / ROS (MEFs [5]; MEFs, MitoPQ 1 to 10 nM (FIG. 2G)): increased amount of superoxide within mitochondria
cell death (MEFs [8]): without causing significant cell death

N=c1ccc2c(-c3ccc(C(=O)O)cc3C(=O)O)c3ccc(N)c(S(=O)(=O)O)c3oc-2c1S(=O)(=O)O [Alx488, Alexa Fluor 488]
MAVS expression or oligomerization with free fluorophore (MAVS [9]): did not lead to increased MAVS expression or oligomerization

Reference: patent US10967047B2, “Mitochondrial antiviral-signaling (MAVS) polypeptides and detection and use thereof” (University of Vermont and State Agricultural College, priority 2016, dated 2021)
